Read-outs that look alike come from different tables or passages of the source.

Here are results for 20 molecules from US10239843B2 (CANCER RESEARCH TECHNOLOGY LIMITED, priority 2014, dated 2019).

Assay [1] addresses Human Full Length PARG (Homo sapiens (Human), UniProt Q86W56). Description: PARG enzyme assay (TR-FRET). To be noted: read-out: PARG Biochem IC50. In kind it is biochemical. (In general: In TR-FRET formats the signal depends on donor and acceptor labels being close together.)
Assay [2] relates to PARG in HeLa cell line. The assay can be described thus: PARG cell assay (PAR chain immunofluorescence after MMS). In kind it is cell-based. To be noted: HeLa cells, MMS treatment, read-out: PARG Cell IC50. The procedure, abridged: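 HeLa cells were dosed with compound for 1 h, then given MMS at 50 μg/mL final for a further hour. Cells were methanol-fixed, permeabilised and stained overnight at 4° C with anti-PAR monoclonal antibody. Retained nuclear PAR chains, detected by indirect immunofluorescence, indicate PARG inhibition.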

Sequence of Human Full Length PARG (Q86W56 whole entry): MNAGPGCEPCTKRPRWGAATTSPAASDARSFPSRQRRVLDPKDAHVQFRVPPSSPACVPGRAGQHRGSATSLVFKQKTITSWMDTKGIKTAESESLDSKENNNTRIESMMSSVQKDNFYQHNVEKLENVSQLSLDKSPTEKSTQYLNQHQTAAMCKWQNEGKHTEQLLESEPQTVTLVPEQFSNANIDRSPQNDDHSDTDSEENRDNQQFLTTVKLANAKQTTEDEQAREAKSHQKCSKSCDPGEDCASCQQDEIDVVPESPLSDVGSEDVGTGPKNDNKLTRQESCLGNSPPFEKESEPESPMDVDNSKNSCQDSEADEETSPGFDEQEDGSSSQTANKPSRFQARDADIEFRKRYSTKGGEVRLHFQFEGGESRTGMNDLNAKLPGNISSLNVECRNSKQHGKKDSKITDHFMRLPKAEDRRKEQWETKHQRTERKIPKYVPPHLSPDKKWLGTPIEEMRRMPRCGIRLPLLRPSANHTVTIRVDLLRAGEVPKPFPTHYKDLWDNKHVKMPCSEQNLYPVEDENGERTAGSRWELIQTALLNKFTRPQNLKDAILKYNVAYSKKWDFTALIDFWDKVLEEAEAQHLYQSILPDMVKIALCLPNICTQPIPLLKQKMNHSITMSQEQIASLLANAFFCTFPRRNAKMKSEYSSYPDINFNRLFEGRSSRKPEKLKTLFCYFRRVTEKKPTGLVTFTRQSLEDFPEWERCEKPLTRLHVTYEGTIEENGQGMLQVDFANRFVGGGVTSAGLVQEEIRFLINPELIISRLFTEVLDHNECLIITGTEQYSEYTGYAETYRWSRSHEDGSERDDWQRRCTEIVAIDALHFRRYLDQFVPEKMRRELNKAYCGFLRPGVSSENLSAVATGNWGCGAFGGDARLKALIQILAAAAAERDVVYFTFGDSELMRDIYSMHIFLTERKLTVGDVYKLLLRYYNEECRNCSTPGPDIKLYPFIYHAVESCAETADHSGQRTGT

The term IC50 denotes the midpoint of a concentration-inhibition curve. For the molecule `Cn1cc(Cn2c(=O)c3cc(S(=O)(=O)NC4(CF)CC4)ccc3n(CC3COC3)c2=O)cn1` [Example 445, N-[1-(Fluoromethyl)cyclopropyl]-3-[(1-methylpyrazol-4-yl)methyl]-1-(oxetan-3-ylmethyl)-2,4-dioxo-quinazoline-6-sulfonamide], the IC50 in assay [1] was found to be 102 nM; in assay [2] (Homo sapiens), 417 nM.
`Cn1c(=O)n(Cc2ccnnc2)c(=O)c2cc(S(=O)(=O)NC3(C)CC3)ccc21` [Example 446, 1-Methyl-N-(1-methylcyclopropyl)-2,4-dioxo-3-(pyridazin-4-ylmethyl)quinazoline-6-sulfonamide]: the figures for the IC50 in assay [1] and in assay [2] (Homo sapiens) were 13400 nM and 18900 nM, respectively.
In the case of `COC(=O)c1cc(S(=O)(=O)NC2(C)CC2)cc2c(=O)n(Cc3cnn(C)c3)c(=O)[nH]c12` [Example 448, Methyl 6-[(1-methylcyclopropyl)sulfamoyl]-3-[(1-methylpyrazol-4-yl)methyl]-2,4-dioxo-1H-quinazoline-8-carboxylate], the IC50 is 424 nM in assay [1] and 329 nM in assay [2].
On to `CN(C)C(=O)c1cc(S(=O)(=O)NC2(C)CC2)cc2c(=O)n(Cc3cnn(C)c3)c(=O)[nH]c12` [Example 449, N,N-Dimethyl-6-[(1-methylcyclopropyl)sulfamoyl]-3-[(1-methylpyrazol-4-yl)methyl]-2,4-dioxo-1H-quinazoline-8-carboxamide], for which the IC50 in assay [1] is 5780 nM; in assay [2] (Homo sapiens) it was 13200 nM.
On to `CNC(=O)c1cc(S(=O)(=O)NC2(C)CC2)cc2c(=O)n(Cc3cnn(C)c3)c(=O)[nH]c12` [Example 450, N-Methyl-6-[(1-methylcyclopropyl)sulfamoyl]-3-[(1-methylpyrazol-4-yl)methyl]-2,4-dioxo-1H-quinazoline-8-carboxamide], for which the results for the IC50 in assay [1] and in assay [2] (Homo sapiens) were 213 nM and 2520 nM, respectively.
Take `CON(C)C(=O)c1cc(S(=O)(=O)NC2(C)CC2)cc2c(=O)n(Cc3cnn(C)c3)c(=O)[nH]c12` [Example 451, N-Methoxy-N-methyl-6-[(1-methylcyclopropyl)sulfamoyl]-3-[(1-methylpyrazol-4-yl)methyl]-2,4-dioxo-1H-quinazoline-8-carboxamide]: the IC50 in assay [1] was found to be 3850 nM; in assay [2] (Homo sapiens), 4500 nM.
In the case of `Cc1cc(Cn2c(=O)c3cc(S(=O)(=O)NC4(C)CC4)ccc3n(CC(C)(C)C#N)c2=O)on1` [Example 452, 1-(2-Cyano-2-methyl-propyl)-N-(1-methylcyclopropyl)-3-[(3-methylisoxazol-5-yl)methyl]-2,4-dioxo-quinazoline-6-sulfonamide], the results for the IC50 in assay [1] and in assay [2] (Homo sapiens) were 202 nM and 280 nM, respectively.
In the same order, the values of `Cn1cc(CN2C(=O)c3cccc4cc(S(=O)(=O)NC5(C)CC5)cc(c34)C2=O)cn1` [Example 454, N-(1-Methylcyclopropyl)-2-[(1-methylpyrazol-4-yl)methyl]-1,3-dioxo-benzo[de]isoquinoline-5-sulfonamide] are 728 nM and 2070 nM.
For `CCn1c(=O)n(Cc2cnc(C)s2)c(=O)c2cc(S(=O)(=O)NC3(C#N)CC3)ccc21` [Example 455, N-(1-Cyanocyclopropyl)-1-ethyl-3-[(2-methylthiazol-5-yl)methyl]-2,4-dioxo-quinazoline-6-sulfonamide], the results for the IC50 in assay [1] and in assay [2] (Homo sapiens) were 177 nM and 283 nM, respectively.
As for `Cn1cc(Cn2c(=O)[nH]c3ccc(S(=O)(=O)NC4(C(F)F)CC4)cc3c2=O)cn1` [Example 456, N-[1-(Difluoromethyl)cyclopropyl]-3-[(1-methylpyrazol-4-yl)methyl]-2,4-dioxo-1H-quinazoline-6-sulfonamide], the IC50 came to 4110 nM in assay [1] and 5600 nM in assay [2].
For the molecule `Cc1ncc(Cn2c(=O)c3cc(S(=O)(=O)NC4(C#N)CC4)ccc3n(Cc3cnn(C)c3)c2=O)s1` [Example 457, N-(1-Cyanocyclopropyl)-1-[(1-methylpyrazol-4-yl)methyl]-3-[(2-methylthiazol-5-yl)methyl]-2,4-dioxo-quinazoline-6-sulfonamide], the IC50 in assay [1] was determined as 42 nM; in assay [2] (Homo sapiens), 494 nM.
As for `Cn1cc(Cn2c(=O)c3cc(S(=O)(=O)NC4(C(F)F)CC4)ccc3n(CC3CC3)c2=O)cn1` [Example 458, 1-(Cyclopropylmethyl)-N-[1-(difluoromethyl)cyclopropyl]-3-[(1-methylpyrazol-4-yl)methyl]-2,4-dioxo-quinazoline-6-sulfonamide], the IC50 came to 1070 nM in assay [1] and 555 nM in assay [2] (Homo sapiens).
Take `Cc1cc(Cn2c(=O)n(Cc3cnn(C)c3)c(=O)c3cc(S(=O)(=O)NC4(C(F)F)CC4)ccc32)n(C)n1` [Example 459, N-[1-(Difluoromethyl)cyclopropyl]-1-[(2,5-dimethylpyrazol-3-yl)methyl]-3-[(1-methylpyrazol-4-yl)methyl]-2,4-dioxo-quinazoline-6-sulfonamide]: the IC50 in assay [1] was found to be 325 nM; in assay [2] (Homo sapiens), 1250 nM.
As for `Cn1cc(Cn2c(=O)c3cc(S(=O)(=O)NC4(C(F)F)CC4)ccc3n(Cc3ccc(F)cc3)c2=O)cn1` [Example 460, N-[1-(Difluoromethyl)cyclopropyl]-1-[(4-fluorophenyl)methyl]-3-[(1-methylpyrazol-4-yl)methyl]-2,4-dioxo-quinazoline-6-sulfonamide], the IC50 in assay [1] amounted to 333 nM; in assay [2] (Homo sapiens), 487 nM.
For the molecule `Cn1cc(Cn2c(=O)c3cc(S(=O)(=O)NC4(CF)CC4)ccc3n(CC3CCC3)c2=O)cn1` [Example 461, 1-(Cyclobutylmethyl)-N-[1-(fluoromethyl)cyclopropyl]-3-[(1-methylpyrazol-4-yl)methyl]-2,4-dioxo-quinazoline-6-sulfonamide], the IC50 in assay [1] amounted to 39 nM; in assay [2] (Homo sapiens), 30 nM.
In the case of `COCCn1c(=O)n(Cc2cnn(C)c2)c(=O)c2cc(S(=O)(=O)NC3(CF)CC3)ccc21` [Example 462, N-[1-(Fluoromethyl)cyclopropyl]-1-(2-methoxyethyl)-3-[(1-methylpyrazol-4-yl)methyl]-2,4-dioxo-quinazoline-6-sulfonamide], the results for the IC50 in assay [1] and in assay [2] (Homo sapiens) were 244 nM and 322 nM, respectively.
For `Cc1cc(CN2C(=O)c3cccc4cc(S(=O)(=O)NC5(C)CC5)cc(c34)C2=O)on1` [Example 464, N-(1-Methylcyclopropyl)-2-[(3-methylisoxazol-5-yl)methyl]-1,3-dioxo-benzo[de]isoquinoline-5-sulfonamide], the IC50 worked out at 1040 nM in assay [1] and 1080 nM in assay [2] (Homo sapiens).
On to `Cc1cc(Cn2c(=O)c3cc(S(=O)(=O)NC4(C)CC4)ccc3n(CC(C)(C)C)c2=O)on1` [Example 465, 1-(2,2-Dimethylpropyl)-N-(1-methylcyclopropyl)-3-[(3-methylisoxazol-5-yl)methyl]-2,4-dioxo-quinazoline-6-sulfonamide], for which the IC50 came out at 283 nM in assay [1] and 188 nM in assay [2] (Homo sapiens).
Regarding `CC[C@H](C)Cn1c(=O)n(Cc2cc(C)no2)c(=O)c2cc(S(=O)(=O)NC3(C)CC3)ccc21` [Example 466, 1-[(2S)-2-Methylbutyl]-N-(1-methylcyclopropyl)-3-[(3-methylisoxazol-5-yl)methyl]-2,4-dioxo-quinazoline-6-sulfonamide], the IC50 is 274 nM in assay [1] and 232 nM in assay [2].
Consider `Cc1cc(Cn2c(=O)c3cc(S(=O)(=O)NC4(C)CC4)ccc3n(CC3(C)CCC3)c2=O)on1` [Example 467, 1-[(1-Methylcyclobutyl)methyl]-N-(1-methylcyclopropyl)-3-[(3-methylisoxazol-5-yl)methyl]-2,4-dioxo-quinazoline-6-sulfonamide], for which the IC50 in assay [1] worked out at 361 nM; in assay [2] (Homo sapiens), 214 nM.
